# Experimental data as given in patent EP3597653A1, “CYCLIC INHIBITORS OF HEPATITIS B VIRUS” (IRBM S.P.A., priority 2018, dated 2020).
# Test system: HBV
# Assay: HBV inhibition assay in HepAD38 cells (extracellular HBV DNA by direct qPCR)
# Format: cell-based
# Details: Hepatitis B virus, 8-point dose-response curve, 96 hours, read-out: HBV inh EC50
# Procedure, shortened: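 HepAD38 cells (HepG2, tetracycline-off HBV) induced in tetracycline-free medium, treated 96 h at 37 °C with compound, 0.5% DMSO. Extracellular HBV DNA quantified by direct SYBR qPCR of lysed supernatant, as % of untreated; EC50 from 8-point 1:2 curves; cytotoxicity by CellTiter-Blue.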
row,Structure (SMILES),EC50 [µM]
1,"CC1Nc2ccc(C(=O)Nc3cc(F)c(F)c(F)c3)cc2S(=O)(=O)N1 (stereo not shown) [Example E21, 3-methyl-N-(3,4,5-trifluorophenyl)-3,4-dihydro-2H-benzo[e][1,2,4]thiadiazine-7-carboxamide 1,1-dioxide]",< 1
2,"O=C(Nc1cc(F)c(F)c(F)c1)c1ccc2c(c1)S(=O)(=O)NC(c1nccs1)N2 (stereo not shown) [Example E49, 3-(thiazol-2-yl)-N-(3,4,5-trifluorophenyl)-3,4-dihydro-2H-benzo[e][1,2,4]thiadiazine-7-carboxamide 1,1-dioxide]",< 1
3,"CC1Nc2cc(Cl)c(C(=O)Nc3cc(F)c(F)c(F)c3)cc2S(=O)(=O)N1 (stereo not shown) [Example E10, 6-chloro-3-methyl-N-(3,4,5-trifluorophenyl)-3,4-dihydro-2H-benzo[e][1,2,4]thiadiazine-7-carboxamide 1,1-dioxide]",< 1

# Same assay, conditions: Hepatitis B virus, compound at 0.1 µM, 96 hours, relative to non-treated reference, read-out: Anti HBV Activity (conc µM)
row,Structure (SMILES),inhibition at 0.1 µM [%]
1,"O=C(Nc1ccc(F)c(Cl)c1)c1ccc2c(c1)S(=O)(=O)N([C@H]1CC[C@H](O)CC1)C(=O)N2 [Example E123, N-(3-chloro-4-fluorophenyl)-2-((1r,4r)-4-hydroxycyclohexyl)-3-oxo-3,4-dihydro-2H-benzo[e][1,2,4]thiadiazine-7-carboxamide 1,1-dioxide]",> 50

# Same assay, conditions: Hepatitis B virus, compound at 0.5 µM, 96 hours, relative to non-treated reference, read-out: Anti HBV Activity (conc µM)
row,Structure (SMILES),inhibition at 0.5 µM [%]
1,"O=C(Nc1cc(F)c(F)c(F)c1)c1ccc2c(c1)S(=O)(=O)NC1(CCNCC1)N2 [Example E14, N-(3,4,5-trifluorophenyl)-2H,4H-spiro[benzo[e][1,2,4]thiadiazine-3,4'-piperidine]-7-carboxamide 1,1-dioxide]",> 50
2,"C[C@H](N1C(=O)Nc2ccc(C(=O)Nc3cc(F)c(F)c(F)c3)cc2S1(=O)=O)C(F)(F)F [Example E78, (S)-3-oxo-N-(3,4,5-trifluorophenyl)-2-(1,1,1-trifluoropropan-2-yl)-3,4-dihydro-2H-benzo[e][1,2,4]thiadiazine-7-carboxamide 1,1-dioxide]",> 50
3,"Cc1cc(NC(=O)c2ccc3c(c2)S(=O)(=O)N([C@H]2CC[C@H](O)CC2)C(=O)N3)ccc1F [Example E132, N-(4-fluoro-3-methylphenyl)-2-((1r,4r)-4-hydroxycyclohexyl)-3-oxo-3,4-dihydro-2H-benzo[e][1,2,4]thiadiazine-7-carboxamide 1,1-dioxide]",> 50
4,"O=C(Nc1cc(F)c(F)c(F)c1)c1ccc2c(c1)S(=O)(=O)N[C@H]1CCC[C@@H]1N2 [Example E95, (3aS, 10aS)-N-(3,4,5-trifluorophenyl)-2,3,3a,4,10,10a-hexahydro-1H-benzo[f]cyclopenta[c][1,2,5]thiadiazepine-7-carboxamide 5,5-dioxide]",< 50
5,"C[C@@H](N1C(=O)Nc2ccc(C(=O)Nc3cc(F)c(F)c(F)c3)cc2S1(=O)=O)C(F)(F)F [Example E77, (R)-3-oxo-N-(3,4,5-trifluorophenyl)-2-(1,1,1-trifluoropropan-2-yl)-3,4-dihydro-2H-benzo[e][1,2,4]thiadiazine-7-carboxamide 1,1-dioxide]",< 50
6,"C[C@H](O)C1Nc2ccc(C(=O)Nc3cc(F)c(F)c(F)c3)cc2S(=O)(=O)N1 (stereo partly drawn) [Example E23, 3-((S)-1-hydroxyethyl)-N-(3,4,5-trifluorophenyl)-3,4-dihydro-2H-benzo[e][1,2,4]thiadiazine-7-carboxamide 1,1-dioxide]",> 50
7,"Cc1cc2c(cc1C(=O)Nc1cc(F)c(F)c(F)c1)S(=O)(=O)NCN2 [Example E9, 6-methyl-N-(3,4,5-trifluorophenyl)-3,4-dihydro-2H-benzo[e][1,2,4]thiadiazine-7-carboxamide 1,1-dioxide]",> 50

# Same assay, conditions: Hepatitis B virus, compound at 1 µM, 96 hours, relative to non-treated reference, read-out: Anti HBV Activity (conc µM)
row,Structure (SMILES),inhibition at 1 µM [%]
1,"O=C(Nc1cc(F)c(F)c(F)c1)c1ccc2c(c1)S(=O)(=O)NC(c1cnns1)N2 (stereo not shown) [Example E45, 3-(1,2,3-thiadiazol-5-yl)-N-(3,4,5-trifluorophenyl)-3,4-dihydro-2H-benzo[e][1,2,4]thiadiazine-7-carboxamide 1,1-dioxide]",> 50
2,"O=C(Nc1cc(F)c(F)c(F)c1)c1ccc2c(c1)S(=O)(=O)N1CCCCC1CO2 (stereo not shown) [Example E111, N-(3,4,5-trifluorophenyl)-1,2,3,4,12,12a-hexahydrobenzo[b]pyrido[1,2-e][1,4,5]oxathiazepine-8-carboxamide 6,6-dioxide]",< 50
3,"O=C(Nc1cc(F)c(F)c(F)c1)c1ccc2c(c1)S(=O)(=O)NC(c1ccccn1)N2 (stereo not shown) [Example E44, 3-(pyridin-2-yl)-N-(3,4,5-trifluorophenyl)-3,4-dihydro-2H-benzo[e][1,2,4]thiadiazine-7-carboxamide 1,1-dioxide]",> 50
4,"CC1(c2ccncc2)Nc2ccc(C(=O)Nc3cc(F)c(F)c(F)c3)cc2S(=O)(=O)N1 (stereo not shown) [Example E39, 3-methyl-3-(pyridin-4-yl)-N-(3,4,5-trifluorophenyl)-3,4-dihydro-2H-benzo[e][1,2,4]thiadiazine-7-carboxamide 1,1-dioxide]",> 50
5,"O=C(Nc1cc(F)c(F)c(F)c1)c1ccc2c(c1)S(=O)(=O)n1ccnc1CN2 [Example E109, N-(3,4,5-trifluorophenyl)-10,11-dihydrobenzo[f]imidazo[1,2-b][1,2,5]thiadiazepine-7-carboxamide 5,5-dioxide]",< 50
6,"O=C(Nc1cc(F)c(F)c(F)c1)c1ccc2c(c1)S(=O)(=O)N1CC(C1)O2 [Example E117, N-(3,4,5-trifluorophenyl)-3,4-dihydro-2,4-methanobenzo[b][1,4,5]oxathiazepine-8-carboxamide 1,1-dioxide]",< 50
7,"O=C(Nc1cc(F)c(F)c(F)c1)c1ccc2c(c1)S(=O)(=O)N([C@H]1CC[C@H](O)CC1)C(=O)N2 [Example E80, trans-2-(4-hydroxycyclohexyl)-3-oxo-N-(3,4,5-trifluorophenyl)-3,4-dihydro-2H-benzo[e][1,2,4]thiadiazine-7-carboxamide 1,1-dioxide]",> 50
8,"O=C(Nc1cc(F)c(F)c(F)c1)c1ccc2c(c1)S(=O)(=O)N1CCCCC1CN2 (stereo not shown) [Example E101, N-(3,4,5-trifluorophenyl)-1,3,4,11,12,12a-hexahydro-2H-benzo[f]pyrido[1,2-b][1,2,5]thiadiazepine-8-carboxamide 6,6-dioxide]",> 50
9,"CN1CC2CCCCN2S(=O)(=O)c2cc(C(=O)Nc3cc(F)c(F)c(F)c3)ccc21 (stereo not shown) [Example E102, 11-methyl-N-(3,4,5-trifluorophenyl)-1,3,4,11,12,12a-hexahydro-2H-benzo[f]pyrido[1,2-b][1,2,5]thiadiazepine-8-carboxamide 6,6-dioxide]",< 50
10,"O=C(Nc1cc(F)c(F)c(F)c1)c1cc2c(cc1Br)NCNS2(=O)=O [Example E8, 6-bromo-N-(3,4,5-trifluorophenyl)-3,4-dihydro-2H-benzo[e][1,2,4]thiadiazine-7-carboxamide 1,1-dioxide]",> 50
11,"O=C(Nc1cc(F)c(F)c(F)c1)c1ccc2c(c1)S(=O)(=O)N[C@H]1CCC[C@H]1N2 [Example E137, (3aS,10aR)-N-(3,4,5-trifluorophenyl)-2,3,3a,4,10,10a-hexahydro-1H-benzo[f]cyclopenta[c][1,2,5]thiadiazepine-7-carboxamide 5,5-dioxide]",< 50
12,"O=C(Nc1ccc(F)c(F)c1)c1ccc2c(c1)S(=O)(=O)N1CCN2CC1 [Example E110, N-(3,4-difluorophenyl)-3,4-dihydro-2,5-ethanobenzo[f][1,2,5]thiadiazepine-8-carboxamide 1,1-dioxide]",< 50
13,"CC(=O)N1CCN2C(COc3ccc(C(=O)Nc4cc(F)c(F)c(F)c4)cc3S2(=O)=O)C1 (stereo not shown) [Example E116, 2-acetyl-N-(3,4,5-trifluorophenyl)-1,2,3,4,12,12a-hexahydrobenzo[b]pyrazino[1,2-e][1,4,5]oxathiazepine-8-carboxamide 6,6-dioxide]",< 50
14,"CN1CNc2ccc(C(=O)Nc3cc(F)c(F)c(F)c3)cc2S1(=O)=O [Example E6, 2-methyl-N-(3,4,5-trifluorophenyl)-3,4-dihydro-2H-benzo[e][1,2,4]thiadiazine-7-carboxamide 1,1-dioxide]",< 50
